Test results as given in patent US20220073536A1 (Rigel Pharmaceuticals, Inc., priority 2003, published 2022).
Like-named read-outs stand apart in the source and are kept apart here.

Test system: cultured human mast cells (CHMC)
Assay: CHMC low cell density IgE activation: tryptase assay
Assay type: cell-based
Details: IgE activation
In short: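 Fluorogenic readout of tryptase released into the supernatant (30 min substrate incubation, room temperature) measures degranulation. Cells were plated at low density (1000–1500/well, varied by donor) and triggered with anti-IgE for 30 min at 37 °C.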

[1] = low cell density CHMC, tryptase, 3 pt, read-out: LD Tryptase, CHMC, IgE, 3 pt
[2] = low cell density CHMC, tryptase, 8 pt, read-out: LD Tryptase, CHMC, IgE, 8 pt
[3] = Homo sapiens, Mast cell, low cell density CHMC, tryptase, 3 pt, read-out: LD Tryptase, CHMC, IgE, 3 pt
[4] = Homo sapiens, Mast cell, low cell density CHMC, tryptase, 8 pt, read-out: LD Tryptase, CHMC, IgE, 8 pt
[5] = low cell density CHMC, tryptase release, 8 pt, read-out: LD Tryptase, CHMC, IgE, 8 pt

Compound | IC50 [1] [µM] | IC50 [2] [µM] | IC50 [3] [µM] | other results
COC(=O)CNC(=O)c1ccc(Nc2ncc(F)c(Nc3ccc(OCc4nc(C)no4)cc3)n2)cc1 [Compound 1342, 5-Fluoro-N2-(4-[N-[methoxycarbonylmethylene]aminocarbonyl]phenyl)-N4-(4-[3-methyl-1,2,4-oxadiazol-5-yl]methyleneoxyphenyl)-2,4-pyrimidinediamine] | < 10 | < 10 | – | –
CN(c1ccc(Cl)c(Cl)c1)c1nc(Nc2ccc(C(N)=O)cc2)ncc1F [Compound 1346] | – | – | < 10 | –
CCN(CC)CCNC(=O)c1ccc(Nc2ncc(F)c(N(C)c3ccc(Cl)c(Cl)c3)n2)cc1 [Compound 1347, N2-(4-[2-[N,N-Diethylamino]ethyleneaminocarbonyl]phenyl)-N4-(3,4-dichlorophenyl)-5-fluoro-N4-methyl-2,4-pyrimidinediamine] | < 10 | – | – | –
NC(=O)c1ccc(Nc2ncc(F)c(NC3CCCC3)n2)cc1 [Compound 1349] | – | – | > 10 | –
CCN(CC)CCNC(=O)c1ccc(Nc2ncc(F)c(NC3CCCC3)n2)cc1 [Compound 1350, N4-(Cyclopentyl)-N2-(4-[2-(N,N-diethylamino]ethyleneaminocarbonyl)phenyl)-5-fluoro-2,4-pyrimidinediamine] | > 10 | < 10 | – | –
COc1cc(Nc2nc(Nc3ccc(C(N)=O)cc3)ncc2F)ccc1Cl [Compound 1352] | – | – | < 10 | –
COc1ccc(Nc2nc(Nc3ccc(C(N)=O)c(Cl)c3)ncc2F)cc1Cl [Compound 1353] | – | – | < 10 | IC50 [4]: < 10 µM
COc1cc(Nc2nc(Nc3ccc(C(N)=O)c(Cl)c3)ncc2F)ccc1Cl [Compound 1354] | – | – | < 10 | IC50 [4]: < 10 µM
CCN(CC)CCNC(=O)c1ccc(Nc2ncc(F)c(Nc3ccc(Cl)c(OC)c3)n2)cc1 [Compound 1355, N4-(4-Chloro-3-methoxyphenyl)-N2-(4-[2-[N,N-diethylamino]ethyleneaminocarbonyl]phenyl)-5-fluoro-2,4-pyrimidinediamine] | < 10 | < 10 | – | –
NC(=O)c1ccc(Nc2ncc(F)c(Nc3ccccc3)n2)cc1 [Compound 1357, N2-(4-Aminocarbonylphenyl)-5-fluoro-N4-phenyl-2,4-pyrimidinediamine] | – | – | < 10 | IC50 [4]: < 10 µM
(R)-N2- (3-Chloro-4-methoxyphenyl)-5-fluoro-N4- (2-methyl-3-oxo-2H,4H-benz[1,4]oxazin-6-yl)-2,4-pyrimidinediamine (1R)-(−)-Camphorsulfonic Acid Salt [Compound 212] | – | – | – | IC50 (low cell density CHMC, tryptase release, 3 pt, read-out: LD Tryptase, CHMC, IgE, 3 pt): < 10 µM; IC50 [5]: < 10 µM
(R)-N2- (3-Chloro-4-methoxyphenyl)-5-fluoro-N4- (2-methyl-3-oxo-2H,4H-benz[1,4]oxazin-6-yl)-2,4-pyrimidinediamine (1S)-(+)-Camphorsulfonic Acid Salt [Compound 209] | – | – | – | IC50 [5]: < 10 µM
(R)-N2-[3- (N-tert-Butoxycarbonylamino)methylenephenyl]-5-fluoro-N4- (2-methyl-3-oxo-2H,4H-benz[1,4]oxazin-6-yl) [Compound 1277] | < 10 | < 10 | – | –
(R,S)-N2- (3,5-Dimethylphenyl)-5-fluoro-N4-(tetrahydrofurano[2,3]-2H-benz[1,4]oxazin-6-yl)-2,4-pyrimidinediamine [Compound 252] | – | – | – | IC50 [5]: < 10 µM
(S)-5-Fluoro-[1- (2-hydroxymethyl)-2-trifluoromethylbenzimidazol-5-yl]-N4- (2-methyl-3-oxo-2H,4H-benz[1,4]oxazin-6-yl)-2,4-pyrimidinediamine [Compound 923] | – | – | – | IC50 (low cell density, 8 pt, read-out: LD Tryptase, CHMC, IgE, 8 pt): < 10 µM
(S)-N2-[3- (N-tert-Butoxycarbonylamino)methylenephenyl]-5-fluoro-N4- (2-methyl-3-oxo-2H,4H-benz[1,4]oxazin-6-yl)-2,4-pyrimidinediamine [Compound 1276] | < 10 | < 10 | – | –
N2- (2,2-Dimethyl-3-oxo-4H-benz[1,4]oxazin-6-yl)-5-fluoro-N4-(4-[N-[methoxycarbonylmethylene]aminocarbonyl]phenyl)-2,4-pyrimidinediamine [Compound 1331] | < 10 | < 10 | – | –
